Laboratory results published in US7192932B1, “Use of immunomodulating agents” (Lauras AS, priority 1997, dated 2007).
Where “and” joins values, the source holds several entries; their conditions need not be identical. Equal values may be shown once. Entries after “also recorded” stand apart in the source; their conditions may differ. Marks after values point to notes of the source that are not given here.

How the values were obtained:
Type in all cases: cell-based, human
CD4+ T lymphocytes = test: BrdU incorporation (DNA synthesis) by flow cytometry, CD4+ subset
Procedure: (§1) We next, by flow cytometry analysis of BrdU incorporation, examined anti-CD3 stimulated T lymphocyte DNA synthesis in the presence and absence of Rp-8-Br-cAMPS in subsets of CD4^+ and CD8^+ T lymphocytes in 8 CVI patients with impaired lymphocyte function and 7 controls. In CVI patients there was a significant increase in percent of BrdU^+ CD4^+ T lymphocytes when cAMP antagonist was added to cell culture [55.8 (40.7–77.0)% versus 69.6 (50.5–90.0)%, without and with antagonist, respectively, P<0.03]. In most patients the maximal increase was found at the highest concentration of Rp-8-Br-cAMPS (1000 μM).

[1] = system: peripheral blood CD3+ T cells; test: TCR/CD3 (anti-CD3) stimulated T cell proliferation, [3H]-thymidine incorporation
Procedure: (§2) Human peripheral blood CD3+ T cells were purified by negative selection from 50 ml of heparin-treated blood from normal healthy donors (Ullevaal University Hospital Blood Center, Oslo. Norway) or patients. Briefly, peripheral blood mononuclear cells were isolated by density gradient (Lymphoprep, NycoMed, Oslo, Norway) centrifugation followed by negative selection using monodisperse magnetic beads directly coated with antibodies to CD14 and CD19 and rat anti-mouse IgG beads coated with antibodies to CD56 and a magnet. Magnetic beads were all from Dynal (Oslo, Norway, cat. no. 111.12, 111.04, and 110.11. respectively) whereas anti-CD56 antibody was from Pharmingen (San Diego, Calif., cat. no. 31660.d). All steps were performed at 4° C.
as §2, with “Peripheral blood” for “Human peripheral blood”, “Center, Oslo,” for “Center, Oslo.”, “selection using,” for “selection using”, “and 110.11,” for “and 110.11.”, “Calif., eat.” for “Calif., cat.”
Proliferation assays were performed by incubation of 0.75×10^6 CM+ T cells/ml in a 100 μl volume in that-bottom 96-well microtiter plates. Activation was achieved by subsequent addition of monodisperse magnetic beads coated with sheep anti-mouse IgG (Dynal. cat. no. 110.02) at a cell:bead ratio of 1:1 followed by addition of antiCD3 (clone SpvT3b) at a final dilution of 1:125,000 for the experiments shown. The optimal concentration of antibody was titrated carefully in the initial setup and parallel experiments at several different dilutions of antibody was always performed. Proliferation was analyzed by incubating, cells for 72 hours during which [^3H]thymidine was included for the last 16 hours. Cells were washed and harvested onto filters using a Scatron harvester (Suffolk, UK) and subsequently analyzed by β-scintillation counting. cAMP analogs, when used, were added 30 min prior to activation by addition of […] antibodies. 8-CPT-cAMP was from Sigorna (St. Louis, Mo.) and Sp- and Rp-8-Br-cAMPS were from BioLog Life Science Company (Bremen, Germany) and were all dissolved to concentrations of 4 to 10 mM in PBS and concentrations calculated using the extinction coefficients given by the manufacturer.

PBMC = test: anti-CD3 stimulated proliferation of PBMC
Procedure: Whereas more than 100% increase in anti-CD3 induced lymphocyte proliferation was found in 7 of the CVI patients, 5 of the patients had less than 40% increase in proliferation when the cAMP antagonist was added to cells in vitro.

CD8+ T lymphocytes = test: BrdU incorporation (DNA synthesis) by flow cytometry, CD8+ subset; details: CVI patients and controls
Procedure: as §1

IL-2 receptor = IL-2 receptor binding in anti-CD3 stimulated T cells (flow cytometry)
IL-2 = IL-2 levels in supernatants from anti-CD3 stimulated T lymphocytes (ELISA)
Procedure: After 20 h of culture, cellfree supernatants were harvested and stored at −80° C. until analysis. The IL-2 levels in supernatants were determined by an ELISA ([…], Minneapolis, Minn.).

[2] = median in 7 CVI patients, 1000 μM
[3] = median in 8 healthy controls, most pronounced effect at 100 μM

Nc1ncnc2c1nc(Br)n2C1OC2COP(O)(=S)OC2C1O (stereo not drawn) [Rp-8-Br-cAMPS, Rp-8-Bromo-cAMP-phosphorothioate]
percent of BrdU+ CD4+ T lymphocytes (CD4+ T lymphocytes; 8 CVI patients, with antagonist (without: 55.8 (40.7–77.0)%), maximal mostly at 1000 μM): 69.6 (50.5–90.0) % | Effect on DNA synthesis in CD4+ lymphocytes (CD4+ T lymphocytes; healthy controls): No effect | Proliferation level relative to levels in healthy controls ([1]; CVI patients' T cells with Rp-8-Br-cAMPS): ~25% | IL-2 concentration with enhancing effect comparable to that of cAMP antagonist ([1]; CVI patients, FIG. 7): ~15 ng/mL | Combined enhancing effects of Rp-8-Br-cAMPS and IL-2 on T lymphocyte proliferation ([1]; CVI patients, 1000 μM Rp-8-Br-cAMPS with IL-2): additive | Increase in proliferation by Rp-8-Br-cAMPS Fold increase compared to untreated ([1]; T cells from HIV+ asymptomatic patients, n = 8, median (25 to 75% range)): 1.50(1.29–1.73)^b fold | Increase in proliferation by Rp-8-Br-cAMPS Fold increase compared to untreated ([1]; T cells from HIV+ symptomatic patients, n = 10, median (25 to 75% range)): 1.62(1.48–2.00)^w fold | Increase in TCR/CD3-induced proliferation by antagonist alone ([1]; T cells from HIV-infected patients, at higher concentrations, FIG. 3D): more than 2 fold | Reversal of Sp-8-Br-cAMPS inhibition of proliferation by complementary antagonist ([1]; T cells from a HIV-infected patient, FIG. 3C): further increased the proliferation above the levels in untreated cells | Reversal of Sp-8-Br-cAMPS inhibition of proliferation by complementary antagonist ([1]; T cells from normal blood donors / healthy controls, increasing concentrations): almost completely reversed | Increase in proliferation by Rp-8-Br-cAMPS Fold increase compared to untreated ([1]; T cells from normal controls, n = 8, median (25 to 75% range)): 1.01(0.93–1.14) fold | Increase in proliferation by Rp-8-Br-cAMPS Fold increase compared to untreated ([1]; T cells from patients on triple combination therapy, n = 9, median (25 to 75% range)): 1.53(1.11–1.77)^o fold | Increase in proliferation by Rp-8-Br-cAMPS (fold increase) ([1]; T cells of individual CVI patients #1-#7): 1.73 fold and 2.10 fold and 1.87 fold and 1.34 fold and 1.37 fold and 2.45 fold and 3.67 fold | Increase in proliferation by Rp-8-Br-cAMPS Fold increase compared to untreated ([1]; T cells of individual HIV-infected patients #1-#18 without protease inhibitor therapy (Table 2a)): 2.81 fold and 2.02 fold and 2.73 fold and 1.48 fold and 1.77 fold and 1.96 fold and 1.5 fold and 1.79 fold and 1.74 fold and 1.3 fold and 1.49 fold and 1.43 fold and 1.46 fold and 1.67 fold and 1.6 fold and 1.27 fold and 1.39 fold and 1.16 fold | Increase in proliferation by Rp-8-Br-cAMPS Fold increase compared to untreated ([1]; T cells of individual patients #1-#9 receiving highly active antiretroviral therapy (Table 2b)): 2.79 fold and 2.65 fold and 1.77 fold (2×) and 1.53 fold and 1.04 fold and 1.52 fold and 0.98 fold and 1.11 fold | Increase in proliferation by Rp-8-Br-cAMPS (fold increase) ([1]; median in 7 CVI patients): 1.87^+ fold | Increase in proliferation by Rp-8-Br-cAMPS (fold increase) ([1]; median in 8 healthy controls): 1.01 fold | Effect of antagonist alone on stimulated proliferation ([1]; normal T cells / healthy controls): No increased T cell proliferation; also recorded: did not alter proliferation; also recorded: did not further enhance T cell proliferation | Increase in anti-CD3 stimulated proliferation ([1]; purified T cells, 3 of 7 CVI patients): > 100% | Increase in anti-CD3 induced lymphocyte proliferation (PBMC; 5 of the 20 CVI patients): less than 40% | Increase in anti-CD3 induced lymphocyte proliferation (PBMC; 7 of the 20 CVI patients): more than 100% | Effect on anti-CD3 stimulated lymphocyte proliferation (PBMC; CVI group): significant and concentration-dependent improvement | Effect on anti-CD3 stimulated lymphocyte proliferation (PBMC; normal blood donors): did not significantly alter proliferation | Change in percent of BrdU+ CD8+ cells (CD8+ T lymphocytes): no significant increase | Effect on IL-2 receptor binding (IL-2 receptor; CD4+ lymphocytes from CVI patients): moderate but significant increase | Effect on IL-2 receptor binding (IL-2 receptor; cells from healthy controls): No such increase | Effect on IL-2 levels in supernatants (IL-2; T lymphocytes from CVI patients): marked and concentration-dependent increase | Increase in IL-2 level by Rp-8-Br-cAMPS (fold increase) (IL-2; individual CVI patients #1-#7, 1000 μM, 20 h culture): 4.50 fold and 4.37 fold and 2.66 fold and 2.49 fold and 2.34 fold and 1.89 fold and 1.77 fold | Highest IL-2 level when adding Rp-8-Br-cAMPS (IL-2; individual CVI patients #1-#7, highest at 1000 μM, 20 h culture): 144 pg/mL and 284 pg/mL and 210 pg/mL and 249 pg/mL and 262 pg/mL and 246 pg/mL and 232 pg/mL | Highest IL-2 level when adding Rp-8-Br-cAMPS (IL-2; [2]): 246^+ pg/mL | Increase in IL-2 level by Rp-8-Br-cAMPS (fold increase) (IL-2; [2]): 2.50^+ fold | Highest IL-2 level when adding Rp-8-Br-cAMPS (IL-2; [3]): 799 pg/mL | Increase in IL-2 level by Rp-8-Br-cAMPS (fold increase) (IL-2; [3]): 1.28 fold
